These results are taken from publication PMC5271370, “A High-Content Assay Enables the Automated Screening and Identification of Small Molecules with Specific ALDH1A1-Inhibitory Activity” (PLoS ONE, 2017).

The first assay relates to HT-29 cells. Kind of assay: 1,536-well high-content imaging ALDEFLUOR assay, HT-29. It is filed as cell-based, human. The settings on record: Homo sapiens, HT-29, 0.5 h, read-out: Aldefluor IC50 HT-29. On the procedure:
(§1) To miniaturize the assay into a 1536-well format amenable to qHTS, we chose MIA PaCa-2 and HT-29 because of their high levels of ALDH1A1(Fig 1A). Utilizing the 8-step protocol described by Ming et al. as a starting point, we developed a “semi-automated” protocol described in S1 Table. Briefly, we plated 1,000 cells in a volume of 5 μL/well into black-optical quality clear bottom 1,536-well plates, and allowed cells to attach overnight. Culture media was subsequently removed by inverting and centrifuging plates using a plate adaptor as previously described and replaced with 5 μL of a solution of either 500 or 100 nM BAAA substrate in ALDEFLUOR buffer. To identify cells based on nuclear staining, we also included 0.5 nM Hoechst 33342 in the above buffer. […] After incubating the plate for 30 minutes at 37°C, 5% CO2, 85% RH, the remaining substrate was removed by centrifugation as above and replaced with 3 μL of ALDEFLUOR buffer. Fluorescence was subsequently imaged using the IN Cell Analyzer 2200 high-content widefield fluorescence based imager and the resulting images were quantified using the IN Cell Investigator v1.6.2 analysis software (see Experimental Procedures for analysis details).
(§2) The ALDEFLUOR kit was purchased from […] Technologies (Vancouver, Canada; #01700). Cells (5 μL) were dispensed into black, optical quality (cyclic olefin copolymer) clear bottom, medium binding TC treated 1,536-well plates (Aurora Microplates, Whitefish MT) using a Multidrop Combi dispenser (ThermoFisher) and incubated overnight (37°C, 5% CO2, 85% RH). Media was subsequently removed by centrifuging plates upside down using a plate adaptor to collect media. A solution of BAAA substrate ([…] Technologies) and Hoechst 33342 (ThermoFisher, final concentrations of 500 nM and 0.5 nM, respectively) in ALDEFLUOR buffer ([…] Technologies #01700) was dispensed onto cells using a Multidrop Combi followed by immediate transfer (23 nL) of compound or control solutions using a Wako Pin-tool (final percentage of DMSO in the cell plates was 0.5%). Unless otherwise noted, all compounds were assayed as 16-point dilutions spanning a final concentration range of 1.4 nM to […]. […] Cells were incubated for 30 minutes or the indicated amount of time at 37°C, 5% CO2, 85% RH to allow the conversion of BAAA into BAA. Supernatant was subsequently removed by centrifugation as described above, then ALDEFLUOR buffer (3 μl) was dispensed by Multidrop Combi before imaging on an IN Cell 2200 (GE Healthcare).
(§3) The above assay was modified for an online robotic screening system. After cell plating and overnight incubation, 4 μL of media were removed using a 64-tip metal aspirator head on a Wako aspirator station, leaving 1 μL remaining in the well, followed by a 4 μL dispense of BAAA and Hoechst 33342 in ALDEFLUOR buffer, for a final concentration of 500 nM and 0.5 nM, respectively. Immediately following the dispense, 23 nL of compound or control solutions were transferred using a Wako Pin-tool. Cells were incubated for 30 minutes at 37°C, 5% CO2, 85% RH, followed by a 4 μL media removal using the Wako aspirator, and a subsequent 3 μL addition of ALDEFLUOR buffer. Plates were then immediately read on the IN Cell 2200 as described below.
(§4) For images captured on the IN Cell 2200 widefield automated microscope, a 10x 0.45 NA Plan Apo objective lens was used to capture the entire well of the 1,536-well plate using standard DAPI (390/18x, 432/48m) and FITC (475/28x, 525/48m) filter sets at 50 msec and 100 msec exposures, respectively. Images were subsequently analyzed using IN Cell Investigator v1.6.2 analysis software’s canned Multi-Target Analysis algorithm (GE Healthcare). Hoechst stained nuclei were identified using top hat segmentation with a minimum area of 75 μm^2 and sensitivity of 93. […]
Take `Cc1cc2c(C(C)C)c(O)c(O)c(C=O)c2c(O)c1-c1c(C)cc2c(C(C)C)c(O)c(O)c(C=O)c2c1O` [Gossypol]: the IC50 was 16.5 µM.

The same assay, now with this note: Homo sapiens, HT-29, 0.5 h, validation set; semi-automated protocol, 16-point dilution, 1,000 cells/well, 500 nM BAAA, 30 min; read-out: Aldefluor IC50 HT-29.
In the case of `CC(C)=CCCC(C)=CC=O` (mixture of isomers) [Citral], the IC50 was approximately 27 µM.

Turning to `CCN(CC)C(=S)SSC(=S)N(CC)CC` [Disulfiram], the IC50 turned out to be 10.9 µM.

Regarding `C#CCN(C)Cc1ccccc1` [Pargyline], the 50% inhibitory concentration (IC50) was 33.5 µM.

`O=C1Nc2ccccc2C1=O` [indoline-2,3-dione]: the IC50 amounted to 17.8 µM.

The same assay, now with this note: semi-automated; active = high quality concentration response curve and >50% efficacy; up to 45.8 μM.
`Cc1nc2ccccc2n1S(=O)(=O)c1ccc(F)cc1` [CB7]: the “Activity in ALDEFLUOR assay, HT-29” value is “tested negative”.

Turning to `COc1cccc2cc(C(=O)CC3(O)C(=O)N(Cc4ccccc4)c4ccccc43)c(=O)oc12` (stereo not drawn) [CID 2929292], the “Activity in ALDEFLUOR assay, HT-29” value was “tested negative”.

On to `O=c1c(-c2ccc(O)cc2)coc2cc(O[C@@H]3O[C@H](CO)[C@@H](O)[C@H](O)[C@H]3O)ccc12` [Daidzin], for which the “Activity in ALDEFLUOR assay, HT-29” value is “tested negative”.

Regarding `Cc1cc2c(C(C)C)c(O)c(O)c(C=O)c2c(O)c1-c1c(C)cc2c(C(C)C)c(O)c(O)c(C=O)c2c1O` [Gossypol], the “Activity in ALDEFLUOR assay, HT-29” value is recorded as “active”.

Take `Nc1ccccc1C(=O)CC(N)C(=O)O` (stereo not drawn) [Kynurenine]: the “Activity in ALDEFLUOR assay, HT-29” value was “tested negative”.

For `C#CCN(C)Cc1ccccc1` [Pargyline], the “Activity in ALDEFLUOR assay, HT-29” value is “active”.

In the case of CVT-10216, the “Activity in ALDEFLUOR assay, HT-29” value is “tested negative”.

The assay is the same for the next values; noted with them: validation set; semi-automated protocol, 16-point dilution, 1,000 cells/well, 500 nM BAAA, 30 min; read-out: Aldefluor IC50 HT-29.
Take `CC(C)=CCCC(C)=CC=O` (mixture of isomers) [Citral]: the IC50 is 26.6 µM.

Turning to `COc1ccc(C(=O)CCN(C)C)cc1F` [Aldi-2], the IC50 was found to be 17.5 µM.

For `CC(C)(C)c1ccc(S(=O)(=O)/C=C/C#N)cc1` [Bay-11-7085], the IC50 came out at 14.3 µM.

As for `CCOc1ccc(NCC(=O)Nc2ccc(Cl)cc2C)cc1` [CID 725345], the IC50 was 14.5 µM.

Take `CCN(CC)c1ccc(C=O)cc1` [DEAB, 4-N,N-diethylaminobenzaldehyde]: the IC50 is 1.69 µM.

Another assay has as its system MIA PaCa-2 cells. In words: 1,536-well high-content imaging ALDEFLUOR assay, MIA PaCa-2. It is filed as cell-based, human. The settings on record: Homo sapiens, MIA PaCa-2, 0.5 h, validation set; semi-automated protocol, 16-point dilution, 1,000 cells/well, 500 nM BAAA, 30 min; read-out: Aldefluor IC50 MIA PaCa-2. On the procedure:
as §1, §2, §3, §4
Consider `CC(C)=CCCC(C)=CC=O` (mixture of isomers) [Citral], for which the IC50 was approximately 27 µM.

Regarding `CCN(CC)C(=S)SSC(=S)N(CC)CC` [Disulfiram], the IC50 was 11 µM.

Turning to `O=C1Nc2ccccc2C1=O` [indoline-2,3-dione], the IC50 came out at 12 µM.

The assay is the same for the next values; noted with them: Homo sapiens, MIA PaCa-2, fully automated protocol-2 with two washes; read-out: IC50 of BAA signal reduction, automated protocol.
Take `C#CCN(C)Cc1ccccc1` [Pargyline]: the IC50 was approximately 5 µM.

Still in this assay, the particulars now being: Homo sapiens, MIA PaCa-2, read-out: ALDEFLUOR IC50 MIA PaCa2.
In the case of `CC(C)N(C(=O)CCl)c1ccccc1` [Propachlor], the IC50 worked out at 0.3 µM.

The assay is the same for the next values; noted with them: Homo sapiens, MIA PaCa-2, retest of screen hits, 11-point dose response 0.77 nM to 45.8 μM; read-out: ALDEFLUOR IC50 MIA PaCa2.
In the case of `C[S+](=O)([O-])c1ccc(Cn2c3c(c4cc(F)cc(F)c42)CCCC3CC(=O)O)cc1` [L-670596], the IC50 is approximately 10 µM.

The same assay, now with this note: retest of screen hits, 11-point dose response 0.77 nM to 45.8 μM; read-out: ALDEFLUOR IC50 MIA PaCa2.
As to `C[S+](=O)([O-])c1ccc(Cn2c3c(c4cc(F)cc(F)c42)CCCC3CC(=O)O)cc1` [L-670596], the IC50 is 10.8 µM.

Staying with this assay, now noted: semi-automated; active = high quality concentration response curve and >50% efficacy; up to 45.8 μM.
In the case of `Cc1nc2ccccc2n1S(=O)(=O)c1ccc(F)cc1` [CB7], the “Activity in ALDEFLUOR assay, MIA PaCa-2” value is “tested negative”.

`COc1cccc2cc(C(=O)CC3(O)C(=O)N(Cc4ccccc4)c4ccccc43)c(=O)oc12` (stereo not drawn) [CID 2929292]: the “Activity in ALDEFLUOR assay, MIA PaCa-2” value was “tested negative”.

With `O=c1c(-c2ccc(O)cc2)coc2cc(O[C@@H]3O[C@H](CO)[C@@H](O)[C@H](O)[C@H]3O)ccc12` [Daidzin], the “Activity in ALDEFLUOR assay, MIA PaCa-2” value was “tested negative”.

Consider `Cc1cc2c(C(C)C)c(O)c(O)c(C=O)c2c(O)c1-c1c(C)cc2c(C(C)C)c(O)c(O)c(C=O)c2c1O` [Gossypol], for which the “Activity in ALDEFLUOR assay, MIA PaCa-2” value was “inactive”.

On to `Nc1ccccc1C(=O)CC(N)C(=O)O` (stereo not drawn) [Kynurenine], for which the “Activity in ALDEFLUOR assay, MIA PaCa-2” value is recorded as “tested negative”.

As to `C#CCN(C)Cc1ccccc1` [Pargyline], the “Activity in ALDEFLUOR assay, MIA PaCa-2” value was “inactive”.

With CVT-10216, the “Activity in ALDEFLUOR assay, MIA PaCa-2” value is reported as “tested negative”.

The same assay, now with this note: validation set; semi-automated protocol, 16-point dilution, 1,000 cells/well, 500 nM BAAA, 30 min; read-out: Aldefluor IC50 MIA PaCa-2.
On to `CC(C)=CCCC(C)=CC=O` (mixture of isomers) [Citral], for which the IC50 turned out to be 27.8 µM.

Regarding `COc1ccc(C(=O)CCN(C)C)cc1F` [Aldi-2], the IC50 worked out at 18 µM.

For the molecule `CC(C)(C)c1ccc(S(=O)(=O)/C=C/C#N)cc1` [Bay-11-7085], the IC50 worked out at 20 µM.

Take `CCOc1ccc(NCC(=O)Nc2ccc(Cl)cc2C)cc1` [CID 725345]: the IC50 amounted to 9.46 µM.

Take `CCN(CC)c1ccc(C=O)cc1` [DEAB, 4-N,N-diethylaminobenzaldehyde]: the IC50 came to 3.44 µM.
